Reference: patent publication US20220389008A1, “4-QUINOLINONE ANTIBACTERIAL COMPOUNDS” (Janssen Sciences Ireland Unlimited Company, priority 2019, published 2022)
Read-outs that look alike come from different tables or passages of the source.

Key:
[1] = system: Mitochondrial toxicity (Glu/Gal); assay: Mitochondrial toxicity (Glu/Gal) assay; assay type: cell-based; parameters: key to Score: “negative” means that in the test, it was found to have low mitotoxicity (and hence no mitotoxicity alerts); “positive” means that there were some mitotoxicity alerts; “inconclusive” means that no accurate conclusion could be drawn; conditions: for Score: mitotoxicity score; for Δ IC50,glu/IC50,gal: ratio glu/gal
From the text: The compounds of the invention/examples may have advantages associated with in vitro potency, kill kinetics (i.e. bactericidal effect) in vitro, PK properties, food effect, safety/toxicity (including liver toxicity, coagulation, 5-LO oxygenase), metabolic stability, Ames II negativity, MNT negativity, aqueous based solubility (and ability to formulate) and/or cardiovascular effect e.g. on animals (e.g. anesthetized guinea pig). The data below that was generated/calculated may be obtained using standard methods/assays, for instance that are available in the literature or which may be performed by a supplier (e.g. Microsomal Stability Assay—Cyprotex, Mitochondrial toxicity (Glu/Gal) assay—Cyprotex, as well as literature CYP cocktail inhibition assays).

rNaCh = assay: CVS / cardio tox rNaCh; assay type: binding, rat; conditions: read-out: Cardio tox rNaCH (IC50)
rCaCh = assay: CVS / cardio tox rCaCh; assay type: binding, rat
hERG = hERG (Homo sapiens, UniProt Q12809); assay: CVS / cardio tox hERG (DOF); assay type: binding; conditions: DOF; read-out: Cardio tox hERG(DOF) (IC50)
[2] = system: Mycobacterium tuberculosis (strain H37Ra), cyt bd; conditions: Mtb H37Ra; for (i) % OCR after cyt bd inhibitor: test compound 10 μM added after Compound X 0.9 μM; for (ii) % OCR after cccp: test compound 10 μM after Compound X 0.9 μM, then CCCP 1 μM
[3] = system: Mycobacterium tuberculosis strain H37Rv ΔctaE-ΔqcrCAB; assay: microbe, parasite or virus in culture; assay type: cell-based; conditions: 240 h
[4] = galactose medium, read-out: IC50, gal
[5] = glucose medium, read-out: IC50, glu

Sequence of hERG (Q12809 whole entry): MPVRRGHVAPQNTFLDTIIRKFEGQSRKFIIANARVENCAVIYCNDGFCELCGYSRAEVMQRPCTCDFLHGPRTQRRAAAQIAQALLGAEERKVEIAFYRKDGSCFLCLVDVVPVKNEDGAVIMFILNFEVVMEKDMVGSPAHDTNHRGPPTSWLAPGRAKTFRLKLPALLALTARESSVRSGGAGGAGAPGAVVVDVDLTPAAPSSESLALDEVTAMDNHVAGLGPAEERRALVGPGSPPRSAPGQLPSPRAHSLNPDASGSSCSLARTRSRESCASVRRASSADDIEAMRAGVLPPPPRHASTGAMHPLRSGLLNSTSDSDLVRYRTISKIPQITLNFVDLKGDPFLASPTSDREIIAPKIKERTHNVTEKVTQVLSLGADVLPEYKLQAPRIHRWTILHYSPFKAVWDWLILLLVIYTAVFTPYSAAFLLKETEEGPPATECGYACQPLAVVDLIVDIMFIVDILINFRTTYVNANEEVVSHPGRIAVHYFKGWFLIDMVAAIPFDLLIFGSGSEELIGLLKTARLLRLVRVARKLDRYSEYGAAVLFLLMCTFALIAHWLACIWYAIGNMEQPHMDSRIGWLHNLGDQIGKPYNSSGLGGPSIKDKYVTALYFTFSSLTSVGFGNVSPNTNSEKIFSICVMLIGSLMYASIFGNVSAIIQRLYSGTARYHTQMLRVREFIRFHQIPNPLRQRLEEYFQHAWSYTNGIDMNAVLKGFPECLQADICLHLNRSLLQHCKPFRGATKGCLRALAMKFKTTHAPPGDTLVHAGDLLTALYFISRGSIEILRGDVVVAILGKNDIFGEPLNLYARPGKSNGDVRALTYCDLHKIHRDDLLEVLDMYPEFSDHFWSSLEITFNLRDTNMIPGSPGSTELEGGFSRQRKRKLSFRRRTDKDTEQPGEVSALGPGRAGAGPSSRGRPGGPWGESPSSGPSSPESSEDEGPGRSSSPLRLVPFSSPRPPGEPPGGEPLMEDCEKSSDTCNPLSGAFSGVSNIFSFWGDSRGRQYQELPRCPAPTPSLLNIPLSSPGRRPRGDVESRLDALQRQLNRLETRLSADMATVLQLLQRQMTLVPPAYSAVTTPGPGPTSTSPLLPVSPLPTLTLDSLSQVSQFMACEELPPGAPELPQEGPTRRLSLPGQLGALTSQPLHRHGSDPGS

Row | SMILES | IC50 [1, 4] [µM] | IC50 [1, 5] [µM] | Score [1] | Δ IC50,glu/IC50,gal [1] | IC50 (rNaCh) [µM] | Cardio tox rCaCh IC50 (µM) (rCaCh) | IC50 (hERG) [µM] | (i) % OCR after cyt bd inhibitor [2] | (ii) % OCR after cccp [2] | IC50 [3] [µM]
1 | Cc1c(-c2nc3ccc(-c4cn(CC(F)(F)F)nn4)cn3n2)[nH]c2ccccc2c1=O [Compound 58] | 100 | 100 | negative | [x]0 | > 10 | >10, >10, >10 | > 10 | 139.74% | 153.33% | > 25
2 | Cc1c(-c2cc3ccc(-c4ccc(OC(F)(F)F)cc4)cn3n2)[nH]c2ccccc2c1=O [Compound 5] | 45.9 | 106 | inconclusive | [x]2.32 | > 10 | >10, >10, >10 | > 10 | 43.48% | 49.26% | 1.27
3 | Cc1c(-c2nc3ccc(-c4ccc(C(F)(F)F)cc4)cn3n2)[nH]c2ccccc2c1=O [Compound 4] | 50 | 50 | negative | [x]0 | 2.3 | > 10 | > 10 | 32.75% | 40.05% | 1.25
4 | Cc1c(-c2nc3ccc(-c4cccc(F)c4)cn3n2)[nH]c2ccccc2c1=O [Compound 12] | 100 | 100 | negative | [x]0 | > 10 | > 10 | > 3.02 | 62.09% | 79.37% | 0.885
5 | Cc1c(-c2nc3ccc(-c4nc(C(F)(F)F)cs4)cn3n2)[nH]c2ccccc2c1=O [Compound 18] | 15.8 | 23.4 | negative | [x]1.48 | 1.51 | > 10 | > 10 | 76.01% | 98.7% | 1.88
6 | COc1cc2[nH]c(-c3nc4ccc(-c5ccc(OC(F)(F)F)cc5)cn4n3)c(C)c(=O)c2cc1OC [Compound 70] | 27.1 | 100 | inconclusive | [x]3.69 | > 10 | >10, >10, >10 | > 10 | 102.2% | 165.65% | > 50
7 | Cc1c(-c2nc3ccc(-c4c[nH]nn4)cn3n2)[nH]c2ccccc2c1=O [Compound 60] | 100 | 100 | negative | [x]0 |  |  |  | 114.505% | 155.065% | > 50
8 | Cc1c(-c2nc3cc(Br)ccn3n2)[nH]c2ccccc2c1=O [Compound 39] | 100 | 100 | negative | [x]0 |  |  |  | 110.6% | 133.8% | > 100
9 | Cc1c(-c2nc3ccc(CC(F)(F)F)cn3n2)[nH]c2ccccc2c1=O [Compound 20] | 125 | 176 | negative | [x]1.41 |  |  |  | 78.5% | 102.86% | 2.17
10 | CNC(=O)c1c(-c2nc3ccc(-c4nc(C(F)(F)F)cs4)cn3n2)[nH]c2ccccc2c1=O [Compound 27] | 100 | 100 | negative | [x]0 |  |  |  | 111.36% | 117.59% | > 50
11 | Cc1c(-c2nc3ccc(CN4CCC(C(F)(F)F)CC4)cn3n2)[nH]c2ccccc2c1=O [Compound 8] | 180 | 163 | negative | [x]0.91 |  |  |  | 82.67% | 59.43% | 3.7
12 | Cc1c(-c2nc3cc(C(F)(F)F)c(Br)cn3n2)[nH]c2ccccc2c1=O [Compound 46] | 100 | 100 | negative | [x]0 |  |  |  | 91.4% | 140.4% | > 50
13 | COc1ccc2[nH]c(-c3nc4ccc(Br)cn4n3)c(C)c(=O)c2c1 [Compound 68] | 100 | 100 | negative | [x]0 |  |  |  | 129.7% | 164.4% | > 100
14 | Cc1c(-c2cn3ccc(Oc4ccc(OC(F)(F)F)cc4)cc3n2)[nH]c2ccccc2c1=O [Compound 29] | 53.7 | 79.7 | negative | 1.5 | 2.3 | 3.3 | ~9.1 | 64.6% | 118.5% | 
15 | Cc1c(-c2nc3ccc(-c4cccc(CC(F)(F)F)c4)cn3n2)[nH]c2ccccc2c1=O [Compound 127] | 15.8 | 18.1 | negative | [x]1.14 |  |  |  | 49,62% | 65,3% | 3.23
16 | Cc1nnc(-c2ccc3nc(-c4[nH]c5ccccc5c(=O)c4C)nn3c2)s1 [Compound 82] | 50 | 50 | negative | [x]0 |  |  |  | 96.77% | 186.45% | > 5
17 | Cc1c(-c2nc3ccc(-c4cc(F)cc(C(F)(F)F)c4)cn3n2)[nH]c2ccccc2c1=O [Compound 126] | 15.5 | 25 | inconclusive | [x]1.61 |  |  |  | 43,71% | 51,74% | 10.8
18 | Cc1c(-c2nc3ccc(-c4ccccc4)cn3n2)[nH]c2ccccc2c1=O [Compound 72] | 100 | 100 | negative | [x]0 |  |  |  | 99.84% | 169.69% | 0.261
19 | COc1ccc2[nH]c(-c3nc4ccc(-c5ccc(OC(F)(F)F)cc5)cn4n3)c(C)c(=O)c2c1Cl [Compound 80] | 50 | 50 | negative | [x]0 |  |  |  | 122.15% | 180.98% | > 25
20 | Cc1c(-c2cn3cc(-c4cccc(OC(F)(F)F)c4)ccc3n2)[nH]c2ccccc2c1=O [Compound 23] | 200 | 200 | negative |  |  |  |  | 97.51% | 110.11% | > 100
21 | Cc1c(-c2nc3ccc(C(F)(F)F)cn3n2)[nH]c2ccccc2c1=O [Compound 19] | 100 | 100 | negative | [x]0 | > 10 | >10, >10, >10 | > 10 | 99.4% | 100.5% | 
22 | O=c1cc(-c2nc3ccc(-c4ccc(OC(F)(F)F)cc4)cn3n2)[nH]c2ccccc12 [Compound 65] | 20 | 20 | negative | [x]0 |  |  |  | 99.86% | 158.97% | > 10
23 | Cc1c(-c2nc3ccc(-c4cc(C(F)(F)F)nn4C)cn3n2)[nH]c2ccccc2c1=O [Compound 15] | 200 | 44.3 | negative | [x]0.22 |  |  |  | 91.58% | 94.75% | 57
24 | Cc1c(-c2nc3ccc(-c4cnn(CC(F)(F)F)c4)cn3n2)[nH]c2ccccc2c1=O [Compound 81] | 200 | 200 | negative | [x]0 |  |  |  | 98.58% | 182.7% | 16.7
25 | Cc1c(Cc2nc3ccc(-c4ccc(OC(F)(F)F)cc4)cn3n2)[nH]c2ccccc2c1=O [Compound 67] | 0.39 | 30 | positive | [x]76.87 |  |  |  | 99.28% | 161.97% | 10.3
